Laboratory results taken from paper PMC7949251 (Journal of medicinal chemistry, 2020).

Assays:
JAK2 JH2 = JAK2 JH2 (Homo sapiens, UniProt O60674, F794H/W659A/W777A); assay: Competitive fluorescence polarization
[1] = cited from earlier work

Chain of JAK2 JH2 (O60674 536-812 W659A/W777A/F794H): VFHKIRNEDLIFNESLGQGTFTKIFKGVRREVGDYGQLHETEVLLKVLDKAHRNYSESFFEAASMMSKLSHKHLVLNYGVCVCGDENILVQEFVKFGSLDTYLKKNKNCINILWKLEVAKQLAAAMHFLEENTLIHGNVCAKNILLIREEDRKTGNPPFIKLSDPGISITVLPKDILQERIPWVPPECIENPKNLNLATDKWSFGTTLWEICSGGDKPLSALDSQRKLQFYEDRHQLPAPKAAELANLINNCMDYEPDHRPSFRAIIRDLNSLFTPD

Row | Compound | octanol/water log P [1] | further results
1 | Nc1nc(Nc2ccc(S(N)(=O)=O)cc2)nn1C(=O)Nc1ccccc1 [Compound 4, 5-amino-N-phenyl-3-((4-sulfamoylphenyl)amino)-1H-1,2,4-triazole-1-carboxamide] |  | improvement in JAK2 JH2 binding over 2 (JAK2 JH2; FP Kd relative to compound 2): 3 fold
2 | N#Cc1ccc(Nc2nc(N)n(C(=O)Nc3ccc(OCC(=O)O)cc3)n2)cc1 [Compound 9, 2-(4-(5-amino-3-((4-cyanophenyl)amino)-1H-1,2,4-triazole-1-carboxamido)phenoxy)acetic acid] |  | boost in binding strength with JAK2 JH2 compared to 4 (JAK2 JH2; FP Kd relative to compound 4): ca. 8 fold
3 | c1cocn1 [oxazole] | 0.12 | 
4 | c1cscn1 [thiazole] | 0.44 | 
5 | c1ccsc1 [thiophene] | 1.81 | 
6 | furan | 1.34 | 
